What was measured:
Assay type in all cases: in vivo, human
[1] = test system: treatment-resistant chronic cough patients; assay: Double-blind randomized placebo-controlled crossover trial in idiopathic/treatment-resistant chronic cough; settings: 600 mg bd
Description: Thus, the inventors explored the role of P2X3 receptors in the sensitization of vagal pathways mediating the cough reflex leading to chronic cough (CC). A study was performed to investigate the efficacy of oral administration of Compound 16 in reducing daytime cough in idiopathic/treatment-resistant chronic cough.
In this study, a double-blind randomized placebo-controlled crossover trial, 24 subjects (19 women, mean age 55 yrs) were randomized into a double blind, placebo-controlled, 2-period, crossover study, of Compound 16, 600 mg bd. Cough was assessed using an ambulatory sound monitoring system at baseline and after 2 weeks of treatment; primary endpoint, daytime objective cough frequency (coughs/hr) (VitaloJAK™); secondary endpoints, cough severity and urge to cough (UTC) visual analogue scales (VAS), global ratings of change and cough quality of life questionnaire (CQLQ).

[2] = Phase 1/Phase 2 clinical studies: safety, tolerability and pharmacokinetics after oral administration
Description: Compound 16 has progressed to completion of 6 Phase 1 studies and 5 Phase 2 studies, with several studies in progress or soon to commence, and over 400 subjects dosed at least once with Compound 16. […] Studies in normal healthy volunteers have explored safety, tolerability and pharmacokinetics of Compound 16 following oral administration of doses from 10 mg to 1800 mg for up to 3 weeks. […] Plasma half-life falls in the range of 7-9 h, with steady state for BID dosing achieved after 3 doses.

[3] = test system: chronic cough patients; assay: Phase 2b dose-escalation crossover study in chronic cough patients
Description: Cough frequency was measured objectively utilizing a cough recording device, with periodic measurements following Compound 16 treatment compared to a baseline recording.
The 29-patient randomized, double-blind, placebo controlled, Phase 2b crossover study was conducted at 10 clinical sites in the U.S. Patients were randomized to either Compound 16 or placebo arms. Those in the treatment group received Compound 16 50 mg, followed by a titration up to 100 mg, 150 mg and 200 mg, with each dose given twice daily for four days. Treatment period one was followed by a 3-5 day washout period. Patients were then crossed over to the alternate arm of the study and treated with either Compound 16 or placebo for 16 more days.

Compound: COc1cc(C(C)C)c(Oc2cnc(N)nc2N)cc1S(N)(=O)=O [Compound 16, 5-(2,4-Diamino-pyrimidin-5-yloxy)-4-isopropyl-2-methoxy-benzenesulfonamide]
- CQLQ (cough quality of life questionnaire), mean difference vs. placebo ([1]; 2 weeks, (−2 to −17), p=0.018): −9
- UTC (urge to cough) VAS, mean difference vs. placebo ([1]; 2 weeks, (−2 to −41), p=0.035): −21 mm
- cough severity VAS, mean difference vs. placebo ([1]; 2 weeks, (−10 to −42), p=0.003): −26 mm
- daytime coughs/hr, mean difference vs. placebo ([1]; after 2 weeks of treatment, 95% CI −50 to −88, p<0.001): −75%
- patients who rated an improved cough ([1]; compared to 2/22 treated with placebo): 13/24
- reduction in objective daytime cough counts ([1]; patients with refractory chronic cough): 75%
- steady state for BID dosing achieved after ([2]; human, oral BID dosing): 3 doses
- oral bioavailability ([2]; human, based on % dose recovered in urine): appears to be high
- Clinical safety ([2]; over 400 subjects dosed at least once, 10 mg to 1800 mg): excellent
- adverse events (AEs) ([2]; patients and healthy volunteers, dose-dependent, notable at higher dose levels): limited to oropharyngeal findings (hypogeusia)
- half-life ([2]; plasma, human, oral, immediate release formulation): 7 to 9 h
- incidence of decreased taste acuity ([3]; 50 mg dose versus 600 mg twice daily in the first study): much less at the 50 mg dose
- tolerability ([3]; 50-200 mg twice daily): generally well tolerated
- patients who discontinued treatment due to the taste effect ([3]; at any dose, 29 patients): Only one patient discontinued treatment
